Reference: patent publication EP0619297B1, “Fungicides for the control of take-all desease of plants” (MONSANTO COMPANY, priority 1993, dated 1994)
In brackets after ≈: the same amount, converted by molar mass.

test system: Gaeumannomyces graminis var. tritici (Ggt); assay: In vitro assay: mycelial growth on minimal media agar plates (Percent Inhibition; IC50); type: cell-based; settings: 0.1 ppm in agar, 19 - 20 °C, 4 to 5 days, read-out: In vitro(ppm) 0.1, Percent Inhibition
Protocol: The test compounds (0.25 mL of an appropriate stock solution in acetone) are incorporated into 25 mL minimal media agar [prepared by autoclaving a solution of 17.5 g Czapek Dox broth (Difco), 7.5 g purified agar or Bacto-agar (Difco), and 500 mL distilled/deionized water, and then adding 50 µL of 1 mg/mL thiamine hydrochloride and 50 µL of 1 mg/mL biotin in 5% ethanol] and plates are prepared.
Each plate is inoculated by placing in a triangular shape three 4-mm plugs of Gaeumannomyces graminis var. tritici (Ggt) grown on the minimal media agar described above. The plates are incubated in the dark at 19 - 20 °C for 4 to 5 days. The growth of the fungus is measured as the diameter of the mycelial growth. The result is expressed as Percent Inhibition, calculated as [1 - [(mm growth on treated plate - 4)/(mm growth on control plate - 4)]] x 100.
To determine IC5O values, an in vitro assay was run on each compound at the concentrations of 1, 0.1, 0.01, 0.001, and 0.0001 ppm. The percent inhibition was calculated for each concentration using the equation described in the in vitro assay under the section on Biological Assays. Using the two ordered pairs of (concentration, % inhibition) that bracket 50% inhibition of fungal growth, the concentration for 50% inhibition is calculated from the following equation. IC50 = [(50-I2 )C1 + (I1 -50)C2 ]/(I1 -I2 ), [formula] where C1 = 10C2.

Row | SMILES | inhibition at 0.1 ppm [%]
1 | C=CCNC(=O)c1c(OC2(C)CCCCC2)ccc2ccccc12 [Example 39, N-allyl 2-[(1-methyl-1-cyclohexyl)oxy]-1-naphthamide] | 57
2 | CCCNC(=O)c1c(OC(C)(CC)CC)ccc2ccccc12 [Example 31, N-propyl 2-[(1,1-diethylethyl)oxy]-1-naphthamide] | 7
3 | CCNC(=O)c1c(OC2(C)CCCC2)ccc2ccccc12 [Example 36, N-ethyl 2-[(1-methyl-1-cyclopentyl)oxy]-1-naphthamide] | 76
4 | CCNC(=O)c1c(NC(C)(C)CC)ccc2ccccc12 [Example 22, N-ethyl 2-[(1,1-dimethylpropyl)amino]-1-naphthamide] | 95
5 | CCNC(=O)c1c(OC(CC)(CC)CC)ccc2ccccc12 [Example 32, N-ethyl 2-[(1,1-diethylpropyl)oxy]-1-naphthamide] | 87
6 | CCCNC(=O)c1c(NC(C)(C)CC)ccc2ccccc12 [Example 25, N-propyl 2-[(1,1-dimethylpropyl)amino]-1-naphthamide] | 95

same assay, conditions: 1 ppm in agar, 19 - 20 °C, 4 to 5 days, read-out: In vitro(ppm) 1, Percent Inhibition

Row | SMILES | inhibition at 1 ppm [%]
7 | C=CCNC(=O)c1c(OC2(C)CCCCC2)ccc2ccccc12 [Example 39, N-allyl 2-[(1-methyl-1-cyclohexyl)oxy]-1-naphthamide] | 96
8 | CCCNC(=O)c1c(OC(C)(CC)CC)ccc2ccccc12 [Example 31, N-propyl 2-[(1,1-diethylethyl)oxy]-1-naphthamide] | 17
9 | CCNC(=O)c1c(OC2(C)CCCC2)ccc2ccccc12 [Example 36, N-ethyl 2-[(1-methyl-1-cyclopentyl)oxy]-1-naphthamide] | 98
10 | CCNC(=O)c1c(NC(C)(C)CC)ccc2ccccc12 [Example 22, N-ethyl 2-[(1,1-dimethylpropyl)amino]-1-naphthamide] | 98
11 | CCNC(=O)c1c(OC(CC)(CC)CC)ccc2ccccc12 [Example 32, N-ethyl 2-[(1,1-diethylpropyl)oxy]-1-naphthamide] | 97
12 | CCCNC(=O)c1c(NC(C)(C)CC)ccc2ccccc12 [Example 25, N-propyl 2-[(1,1-dimethylpropyl)amino]-1-naphthamide] | 100

same assay, conditions: 10 ppm in agar, 19 - 20 °C, 4 to 5 days, read-out: In vitro(ppm) 10, Percent Inhibition

Row | SMILES | inhibition at 10 ppm [%]
13 | C=CCNC(=O)c1c(OC2(C)CCCCC2)ccc2ccccc12 [Example 39, N-allyl 2-[(1-methyl-1-cyclohexyl)oxy]-1-naphthamide] | 96
14 | CCCNC(=O)c1c(OC(C)(CC)CC)ccc2ccccc12 [Example 31, N-propyl 2-[(1,1-diethylethyl)oxy]-1-naphthamide] | 98
15 | CCNC(=O)c1c(OC2(C)CCCC2)ccc2ccccc12 [Example 36, N-ethyl 2-[(1-methyl-1-cyclopentyl)oxy]-1-naphthamide] | 100
16 | CCNC(=O)c1c(NC(C)(C)CC)ccc2ccccc12 [Example 22, N-ethyl 2-[(1,1-dimethylpropyl)amino]-1-naphthamide] | 98
17 | CCNC(=O)c1c(OC(CC)(CC)CC)ccc2ccccc12 [Example 32, N-ethyl 2-[(1,1-diethylpropyl)oxy]-1-naphthamide] | 97
18 | CCCNC(=O)c1c(NC(C)(C)CC)ccc2ccccc12 [Example 25, N-propyl 2-[(1,1-dimethylpropyl)amino]-1-naphthamide] | 100

same assay, conditions: interpolated from percent inhibition at 1, 0.1, 0.01, 0.001 and 0.0001 ppm

Row | IC50 [ng/mL] | SMILES
19 | 9.18 (≈ 0.0323 µM) | CCNC(=O)c1c(NC(C)(C)CC)ccc2ccccc12 [Example 22, N-ethyl 2-[(1,1-dimethylpropyl)amino]-1-naphthamide]
20 | 42.2 (≈ 0.135 µM) | CCNC(=O)c1c(OC(CC)(CC)CC)ccc2ccccc12 [Example 32, N-ethyl 2-[(1,1-diethylpropyl)oxy]-1-naphthamide]
21 | 1 (≈ 0.00335 µM) | CCCNC(=O)c1c(NC(C)(C)CC)ccc2ccccc12 [Example 25, N-propyl 2-[(1,1-dimethylpropyl)amino]-1-naphthamide]

same assay, conditions: read-out: In vitro(ppm) 0.1, Percent Inhibition

Row | SMILES | inhibition at 0.1 ppm [%]
22 | CCNC(=O)c1sc2ccccc2c1[Si](C)(C)C [Example 9, N-Ethyl-3-(trimethylsilyl)benzo[b]thiophene-2-carboxamide] | 0

same assay, conditions: read-out: In vitro(ppm) 1, Percent Inhibition

Row | SMILES | inhibition at 1 ppm [%]
23 | CCNC(=O)c1sc2ccccc2c1[Si](C)(C)C [Example 9, N-Ethyl-3-(trimethylsilyl)benzo[b]thiophene-2-carboxamide] | 0

same assay, conditions: read-out: In vitro(ppm) 10, Percent Inhibition

Row | SMILES | inhibition at 10 ppm [%]
24 | CCNC(=O)c1sc2ccccc2c1[Si](C)(C)C [Example 9, N-Ethyl-3-(trimethylsilyl)benzo[b]thiophene-2-carboxamide] | 88

test system: Ggt; assay: In vivo assay: control of Ggt on wheat in 3-inch pots with infested soil, rated after four weeks;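 for In vivo(ppm) 0.1, percent disease control: rate is mg active ingredient per pot in 3 mL solution not ppm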;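 for In vivo(ppm) 0.5, percent disease control: rate is mg active ingredient per pot in 3 mL solution not ppm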; set-up: species or system Gaeumannomyces graminis var. tritici; settings: Gaeumannomyces graminis, 672 h; rate 0.02mg/pot; wheat, soil infested with Ggt, after four weeks; read-out: In vivo(ppm) 0.02mg/pot, percent disease control
Protocol: Compounds are tested for control of Ggt on 'Bergen' or 'Anza' varieties of wheat grown in 3-inch square pots containing soil infested with Ggt. The infestation is accomplished by mixing the soil with an inoculum prepared by growing Ggt on 1/4 strength potato dextrose agar (4.875 g potato dextrose agar, 5.0 g Bacto agar, 500 mL distilled, deionized water) in plates and using plugs from the plates to infest sterile oats (400 cc whole oats, 350 mL deionized water, autoclaved). After a one-month incubation period at room temperature, the oats are dried and mixed with the soil at 4% v/v. Four wheat seeds are placed on top of the soil in each pot. […] Five pots are used for each treatment level and the controls, which are untreated, inoculated and non-inoculated pots. After one hour drying time, the seeds are covered with more of the appropriate soil and a layer of vermiculite. The pots are placed in a growth chamber and watered each day. After four weeks, each pot is evaluated for evidence of disease by examination of the seminal roots of each plant under a dissecting microscope. A 0 to 5 rating scale having the following meanings is used: • 0 = no runner hyphae or lesions present • 1 = runner hyphae and a few small lesions present on <10% of root system • 2 = runner hyphae and small lesions present on 10 - 25% of root system • 3 = runner hyphae and lesions present on 25 - 50% of root system • 4 = runner hyphae and many, large, coalescing lesions on >50% of root system • 5 = root system and culm completely inundated with lesions and runner hyphae
From each set of five replicates a high or low score may be eliminated to assure the best representative scores are used to calculate a replicate mean by averaging the remaining scores. This mean score is then compared to the untreated control score and a percent disease control is calculated.

Row | SMILES | pest or weed control at 0.02 mg/pot [%]
25 | C=CCNC(=O)c1c(OC2(C)CCCCC2)ccc2ccccc12 [Example 39, N-allyl 2-[(1-methyl-1-cyclohexyl)oxy]-1-naphthamide] | 0
26 | CCCNC(=O)c1c(OC(C)(CC)CC)ccc2ccccc12 [Example 31, N-propyl 2-[(1,1-diethylethyl)oxy]-1-naphthamide] | 0
27 | CCNC(=O)c1c(OC2(C)CCCC2)ccc2ccccc12 [Example 36, N-ethyl 2-[(1-methyl-1-cyclopentyl)oxy]-1-naphthamide] | 0
28 | CCNC(=O)c1c(NC(C)(C)CC)ccc2ccccc12 [Example 22, N-ethyl 2-[(1,1-dimethylpropyl)amino]-1-naphthamide] | 11
29 | CCNC(=O)c1c(OC(CC)(CC)CC)ccc2ccccc12 [Example 32, N-ethyl 2-[(1,1-diethylpropyl)oxy]-1-naphthamide] | 15
30 | CCCNC(=O)c1c(NC(C)(C)CC)ccc2ccccc12 [Example 25, N-propyl 2-[(1,1-dimethylpropyl)amino]-1-naphthamide] | 17

same assay, conditions: Gaeumannomyces graminis, 672 h; rate 0.1 (head prints ppm, head line ends mg/pot); wheat, soil infested with Ggt, after four weeks; N = no control; read-out: In vivo(ppm) 0.1, percent disease control

Row | SMILES | pest or weed control at 0.1 mg/pot [%]
31 | C=CCNC(=O)c1c(OC2(C)CCCCC2)ccc2ccccc12 [Example 39, N-allyl 2-[(1-methyl-1-cyclohexyl)oxy]-1-naphthamide] | 11
32 | CCCNC(=O)c1c(OC(C)(CC)CC)ccc2ccccc12 [Example 31, N-propyl 2-[(1,1-diethylethyl)oxy]-1-naphthamide] | 0
33 | CCNC(=O)c1c(OC2(C)CCCC2)ccc2ccccc12 [Example 36, N-ethyl 2-[(1-methyl-1-cyclopentyl)oxy]-1-naphthamide] | 0
34 | CCNC(=O)c1c(NC(C)(C)CC)ccc2ccccc12 [Example 22, N-ethyl 2-[(1,1-dimethylpropyl)amino]-1-naphthamide] | 41
35 | CCNC(=O)c1c(OC(CC)(CC)CC)ccc2ccccc12 [Example 32, N-ethyl 2-[(1,1-diethylpropyl)oxy]-1-naphthamide] | 35
36 | CCCNC(=O)c1c(NC(C)(C)CC)ccc2ccccc12 [Example 25, N-propyl 2-[(1,1-dimethylpropyl)amino]-1-naphthamide] | 57

same assay, conditions: Gaeumannomyces graminis, 672 h; rate 0.5 (head prints ppm, head line ends mg/pot); wheat, soil infested with Ggt, after four weeks; N = no control; read-out: In vivo(ppm) 0.5, percent disease control

Row | SMILES | pest or weed control at 0.5 mg/pot [%]
37 | C=CCNC(=O)c1c(OC2(C)CCCCC2)ccc2ccccc12 [Example 39, N-allyl 2-[(1-methyl-1-cyclohexyl)oxy]-1-naphthamide] | 28
38 | CCCNC(=O)c1c(OC(C)(CC)CC)ccc2ccccc12 [Example 31, N-propyl 2-[(1,1-diethylethyl)oxy]-1-naphthamide] | 3
39 | CCNC(=O)c1c(OC2(C)CCCC2)ccc2ccccc12 [Example 36, N-ethyl 2-[(1-methyl-1-cyclopentyl)oxy]-1-naphthamide] | 60
40 | CCNC(=O)c1c(NC(C)(C)CC)ccc2ccccc12 [Example 22, N-ethyl 2-[(1,1-dimethylpropyl)amino]-1-naphthamide] | 70
41 | CCNC(=O)c1c(OC(CC)(CC)CC)ccc2ccccc12 [Example 32, N-ethyl 2-[(1,1-diethylpropyl)oxy]-1-naphthamide] | 58
42 | CCCNC(=O)c1c(NC(C)(C)CC)ccc2ccccc12 [Example 25, N-propyl 2-[(1,1-dimethylpropyl)amino]-1-naphthamide] | 78

same assay, conditions: Gaeumannomyces graminis, soil, 672 h, read-out: In vivo(ppm) 0.1, percent disease control

Row | SMILES | pest or weed control at 0.1 mg/pot [%]
43 | CCNC(=O)c1sc2ccccc2c1[Si](C)(C)C [Example 9, N-Ethyl-3-(trimethylsilyl)benzo[b]thiophene-2-carboxamide] | < 0
